In US20100129317A1 (priority 2006, published 2010):
Entries after “also recorded” stand apart in the source; their conditions may differ.

Experiments:
Human adenosine kinase [1] = target: T1, Human adenosine kinase (Homo sapiens, UniProt P55263); test: Adenosine kinase activity with selected nucleoside analogs (conversion to 5'-monophosphate, HPLC); format: biochemical; conditions: 100 μM of each compound and ATP, 37° C., conversion to 5'-monophosphate by HPLC
Hantaan virus (HTNV) = format: cell-based
influenza A/Udorn/72 = format: cell-based, Influenza A H3N2
Human adenosine kinase [2] = target: T1, Human adenosine kinase; test: Radiolabeled TA-18 as substrate for human adenosine kinase; format: biochemical; conditions: radiolabeled compound, 10 μM
human CEM cells = test: Metabolism to phosphorylated intracellular metabolites in human cells
[3] = test system: GTP levels in human cells; test: Intracellular GTP levels in human cells; format: cell-based; conditions: for effect of treatment on GTP levels in human cells: 10 μM
[4] = test system: Crimean Congo Hemorraghic fever virus (CCHFV); format: cell-based

T1 sequence (P55263 whole entry): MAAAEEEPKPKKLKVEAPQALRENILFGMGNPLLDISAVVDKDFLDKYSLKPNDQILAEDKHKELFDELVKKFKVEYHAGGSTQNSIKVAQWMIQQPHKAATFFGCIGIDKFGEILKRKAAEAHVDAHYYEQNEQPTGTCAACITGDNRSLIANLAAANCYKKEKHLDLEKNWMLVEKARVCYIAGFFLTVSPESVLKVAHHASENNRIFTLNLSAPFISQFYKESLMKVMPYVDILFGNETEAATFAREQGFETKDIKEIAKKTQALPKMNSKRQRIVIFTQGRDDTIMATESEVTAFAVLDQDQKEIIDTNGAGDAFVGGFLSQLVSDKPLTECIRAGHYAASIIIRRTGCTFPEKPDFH

## NC(=O)CC(O)c1ncn([C@@H]2O[C@H](CO)[C@@H](O)[C@H]2O)n1 (stereo partly drawn) [TA-20, 3-(1-β-D-ribofuranosyl-[1,2,4]triazol-3-yl)-3-hydroxypropionamide]
Human adenosine kinase [1]
  Activity as a percent of ribavirin: 5% of ribavirin

## O=c1c2ncn([C@@H]3O[C@H](CO)[C@@H](O)[C@H]3O)c2ncn1-c1cccc(F)c1 [IA-3, N^1-(3-fluorophenyl)-inosine]
Hantaan virus (HTNV)
  antiviral activity against HTNV: showed antiviral activity

## C#Cc1ncn([C@@H]2O[C@H](CO)[C@@H](O)[C@H]2O)n1 [TA-18, 3-ethynyl-1-(β-D-ribofuranosyl)-[1,2,4]triazole]
Influenza A/Udorn/72
  antiviral activity against influenza: showed antiviral activity
Human adenosine kinase [2]
  substrate for human adenosine kinase (radiolabeled TA-18): it is a substrate for human adenosine kinase; also recorded: subs ate for human adenosine kinase
Human adenosine kinase [1]
  Activity as a percent of ribavirin: 25% of ribavirin
Hantaan virus (HTNV)
  antiviral activity against HTNV: showed antiviral activity
Human CEM cells; human CEM cells, 10 μM
  conversion to phosphorylated metabolites in human cells: converted to phosphorylated metabolites
[3]
  effect of treatment on GTP levels in human cells: decline in GTP levels
[3]; inferred from metabolite amounts and GTP decline
  potency of metabolites in reducing GTP levels compared with ribavirin metabolites: more potent in reducing GTP levels than the ribavirin metabolites
[4]
  antiviral activity against CCHFV: showed antiviral activity

## Nc1ncnc2c1c(I)cn2[C@@H]1O[C@H](CO)[C@@H](O)[C@H]1O [iodotubercidin, reference compound]
Human CEM cells; human cells
  effect of adenosine kinase inhibition with iodotubercidin on the metabolism of TA-18: inhibited the metabolism of TA-18
[3]
  effect of adenosine kinase inhibition with iodotubercidin on the decline in GTP levels caused by TA-18: prevented the decline in GTP levels caused by TA-18

## OC[C@H]1O[C@@H](n2cnc(C(O)c3ccccc3)n2)C(O)[C@H]1O (stereo partly drawn) [TA-14, 1-(1-β-D-ribofuranosyl-[1,2,4]triazol-3-yl)-phenylmethanol]
Hantaan virus (HTNV)
  antiviral activity against HTNV: showed antiviral activity

## CC(=O)c1ncn([C@@H]2O[C@H](CO)[C@@H](O)[C@H]2O)n1 [TA-13, 1-(1-β-D-ribofuranosyl-[1,2,4]triazole-3-yl)-ethanone]
Human adenosine kinase [1]
  Activity as a percent of ribavirin: 8% of ribavirin

## O=[N+]([O-])c1ncn([C@@H]2O[C@H](CO)C(O)[C@@H]2O)n1 (some centres unmarked) [TA-1]
[4]
  antiviral activity against CCHFV: showed antiviral activity

## NC(=O)c1ncn([C@@H]2O[C@H](CO)[C@@H](O)[C@H]2O)n1 [ribavirin, reference compound]
[3]
  effect of treatment on GTP levels in human cells: decrease in GTP levels

## Nc1c(C(=O)Nc2cccc(F)c2)ncn1[C@@H]1O[C@H](CO)C(O)C1O (stereo partly drawn) [RN-3, 5-amino-4-N-3-fluorophenylcarboxamide-1-β-D-ribofuranosyl-1H-imidazole]
Hantaan virus (HTNV)
  antiviral activity against HTNV: showed activity
